{
  "source": "paper PMC11968843",
  "about": "“Sulphostin-inspired N-phosphonopiperidones as selective covalent DPP8 and DPP9 inhibitors” (Nature Communications, 2025)",
  "key": {"DPP8": {"target": "T1, DPP8 (Homo sapiens, UniProt Q6V1X1)", "T1 construct": "purchased Proteros Biostructures GmbH, Germany", "T1 sequence (Q6V1X1 whole entry)": "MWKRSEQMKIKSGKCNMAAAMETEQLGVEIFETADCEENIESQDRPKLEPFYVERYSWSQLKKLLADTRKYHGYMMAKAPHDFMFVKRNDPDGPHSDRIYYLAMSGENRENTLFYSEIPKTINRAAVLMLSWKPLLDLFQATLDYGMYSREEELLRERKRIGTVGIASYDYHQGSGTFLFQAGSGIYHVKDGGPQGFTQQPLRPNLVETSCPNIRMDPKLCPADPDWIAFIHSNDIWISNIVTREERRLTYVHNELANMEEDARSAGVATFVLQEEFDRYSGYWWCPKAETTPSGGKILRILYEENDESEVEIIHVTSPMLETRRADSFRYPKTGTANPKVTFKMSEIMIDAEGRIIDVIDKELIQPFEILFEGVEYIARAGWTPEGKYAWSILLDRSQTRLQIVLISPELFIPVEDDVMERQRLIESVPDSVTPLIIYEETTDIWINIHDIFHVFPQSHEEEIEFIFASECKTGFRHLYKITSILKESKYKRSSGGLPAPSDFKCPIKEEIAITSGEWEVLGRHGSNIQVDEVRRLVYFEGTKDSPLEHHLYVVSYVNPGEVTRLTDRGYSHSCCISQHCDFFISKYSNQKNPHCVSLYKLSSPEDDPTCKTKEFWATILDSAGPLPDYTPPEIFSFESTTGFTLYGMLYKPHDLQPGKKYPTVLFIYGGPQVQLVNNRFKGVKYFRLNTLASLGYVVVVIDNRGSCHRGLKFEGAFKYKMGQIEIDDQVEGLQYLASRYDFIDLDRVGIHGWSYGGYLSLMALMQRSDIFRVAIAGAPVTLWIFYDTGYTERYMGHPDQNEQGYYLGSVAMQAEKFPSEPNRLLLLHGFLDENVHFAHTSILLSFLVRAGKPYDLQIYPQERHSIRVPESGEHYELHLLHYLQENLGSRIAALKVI", "test": "biochemical", "type": "biochemical", "procedure": "(§1) Enzyme activity of DPP4, DPP8, DPP9 (Proteros Biostructures GmbH, Germany) and PREP (Sigma Aldrich, USA) was determined by measuring the initial velocity of AMC release from the fluorogenic substrate GP-AMC (Sigma Aldrich, USA) using a Tecan Spark® 10 M multimode microplate reader (Tecan Group Ltd., Switzerland) in activity buffer (20 mM HEPES/KOH pH 7.3, 110 mM potassium acetate, 2 mM Mg acetate, 0.5 mM EGTA, 0.02% Tween 20, supplemented with 1 mM DTT) and a final volume of 20 μL for maximal 60 min at 30 °C. Prior to activity measurement, 10 nM enzyme was incubated for 45 min at 30 °C and gentle shaking with the inhibitor compounds in concentrations ranging from 0 to 100 μM. The compounds were dissolved in DMSO and diluted in activity buffer (final DMSO concentration: 1%). […] IC50 values were calculated using Graph-Pad Prism v10.2.3 using the equation: [Inhibitor] vs. response—Variable slope (four parameters). All measurements were performed in triplicates and error bars represent standard errors of the fit."}, "[1]": {"target": "T2, DPP9-BRCA2 interaction in HeLa wild-type cells (Homo sapiens, UniProt Q86TI2)", "T2 construct": "endogenous in cells; host or cells: HeLa wild-type (HeLa Flp-In T-REx WT)", "T2 sequence (Q86TI2 whole entry)": "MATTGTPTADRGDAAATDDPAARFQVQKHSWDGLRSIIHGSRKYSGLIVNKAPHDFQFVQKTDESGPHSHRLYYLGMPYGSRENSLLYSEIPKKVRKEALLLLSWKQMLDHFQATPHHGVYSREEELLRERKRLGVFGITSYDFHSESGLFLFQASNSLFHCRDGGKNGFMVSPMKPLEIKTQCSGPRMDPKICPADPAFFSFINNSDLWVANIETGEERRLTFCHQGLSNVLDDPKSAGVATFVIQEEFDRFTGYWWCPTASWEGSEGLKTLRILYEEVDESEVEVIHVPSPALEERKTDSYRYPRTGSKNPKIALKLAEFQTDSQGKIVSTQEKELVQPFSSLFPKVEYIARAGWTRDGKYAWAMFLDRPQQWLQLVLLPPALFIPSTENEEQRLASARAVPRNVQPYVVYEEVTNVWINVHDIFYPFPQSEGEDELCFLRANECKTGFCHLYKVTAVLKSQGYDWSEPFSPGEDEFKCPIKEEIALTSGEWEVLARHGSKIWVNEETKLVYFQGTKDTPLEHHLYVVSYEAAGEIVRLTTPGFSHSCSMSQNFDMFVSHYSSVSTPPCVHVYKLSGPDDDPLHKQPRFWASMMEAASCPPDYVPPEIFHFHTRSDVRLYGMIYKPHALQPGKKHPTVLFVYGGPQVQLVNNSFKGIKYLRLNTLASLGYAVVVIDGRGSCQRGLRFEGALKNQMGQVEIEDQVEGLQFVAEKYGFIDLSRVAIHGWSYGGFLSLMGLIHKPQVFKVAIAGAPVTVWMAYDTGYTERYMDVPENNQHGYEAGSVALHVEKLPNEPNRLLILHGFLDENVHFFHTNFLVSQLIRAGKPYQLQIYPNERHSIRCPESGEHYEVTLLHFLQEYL", "test": "Proximity ligation assay (PLA) of MMC-induced DPP9-BRCA2 interaction", "type": "cell-based", "details": "for 95% confidence interval of difference: compound vs. +Ctrl., Unpaired two-sided t-test", "procedure": "HeLa wild-type cells were cultured as described above. Cells were seeded on coverslips in 24‐well plates (Greiner, Germany) at a concentration of 2 × 10^4 cells per well (37 °C and 5% CO2). To induce a DPP9-BRCA2 interaction, 300 nM MMC was added to the cells 8 h after seeding and for a total incubation time of 24 h. Indicated Inhibitors (10 µM) were added 1 h prior to cell fixation. Cells were fixed with 4% formaldehyde in PBS for 10 min and permeabilized with 0.2% Triton‐X‐100 in PBS for 5 min. The proximity ligation assay (PLA) was performed using the Duolink in situ PLA Kit (Sigma Aldrich, USA). Briefly, cells were washed with PBS and blocked with Duolink Blocking solution for 60 min at 37 °C. […] Antibody control coverslips were treated with only one primary antibody to estimate background staining in each experiment. Coverslips were washed and treated with PLA reagents according to the manufacturers protocol. Cells were mounted in DAKO with DAPI fluorescent mounting medium and analyzed using an LSM 710 confocal microscope, 63x NA 1.4 oil immersion objective (Zeiss, Germany). Images were processed using Zen black v2.3 (Zeiss, Germany) and subsequently analyzed using the Duolink ImageTool Setup 1.0.1.2 (Sigma Aldrich, USA)."}, "HeLa wild-type cells [2]": {"tested_on": "HeLa wild-type cells", "test": "Cell viability assay (MTT), inhibitor alone", "type": "cell-based", "details": "for Cell viability normalized to mock treated cells + 0 µM MMC: individual replicate values (Supplementary Figure 11a); for 95% confidence interval of difference: Figure 5d S11a, Ctrl. [-MMC] vs. compound [-MMC], Tukey's multiple comparisons test", "procedure": "(§2) HeLa wild-type (HeLa Flp-In T-REx WT, kind gift from Prof. Matthias Hentze) and HeLa DPP9^KO cells (prepared in-house) were cultured in DMEM (ThermoFisher, USA) supplemented with 10% FBS (PAN Biotech, Germany), 2 mM L-Glutamin (ThermoFisher, USA) and 1% Penicillin/Streptomycin (100 U mL^−1 Penicillin and 100 µg mL^−1 Streptomycin, ThermoFisher, USA). Cells were seeded in 96-well flat-bottom cell culture plates (Greiner, Germany) at a concentration of 5 × 10^3 cells per well (37 °C and 5% CO2). The indicated concentration of Mitomycin C (MMC, Merck) was added to the cells 24 h after seeding, together with 10 µM of the indicated inhibitor. The inhibitors were refreshed every 24 h. Control cells were treated with DMSO.\n(§3) Cell viability was measured 72 hours after the MMC treatment. For this, the medium was removed and replaced with phenol-red free DMEM (ThermoFisher, USA) containing 0.5 mg mL^−1 MTT (Sigma Aldrich, USA). Cells were incubated for 30 min at 37 °C, 5% CO2. Subsequently, the medium was removed and replaced by DMSO. The plates were shaken on an orbital shaker for 20 min before measuring the MTT signal on a CARIOstar Plus microplate reader (BMT labtech, Germany). Each experiment was performed three times, each in triplicates."}, "HeLa wild-type cells [3]": {"tested_on": "HeLa wild-type cells", "test": "Cell viability assay (MTT), co-treatment with Mitomycin C", "type": "cell-based", "details": "for cell viability normalized for each condition seperately to corresponsing [-MMC +inhibitor] control: +MMC co-treatment, individual replicate values (Supplementary Figure 11b); for effect on cell viability / sensitivity to MMC: HeLa wild-type, 1 µM MMC + 10 µM inhibitor, 72 h", "procedure": "as §2, §3"}, "DPP9": {"target": "DPP9 (Homo sapiens, UniProt Q86TI2)", "sequence (Q86TI2 whole entry)": "as above", "test": "biochemical", "type": "biochemical", "design": "purchased Proteros Biostructures GmbH, Germany", "procedure": "as §1"}, "[4]": {"details": "Figure 5d S11a, + Ctrl. [+MMC] vs. compound [+MMC], Tukey's multiple comparisons test"}, "[5]": {"details": "Figure S11b, Ctrl. vs. compound, Uncorrected Fisher's LSD"}},
  "note": "Where “and” joins values, the source holds several entries; their conditions need not be identical. Equal values may be shown once. Entries after “also recorded” stand apart in the source; their conditions may differ.",
  "data": [
    {"smiles": "N[C@@H](CC(=O)N1CCN(C(c2ccc(F)cc2)c2ccc(F)cc2)CC1)C(=O)N1Cc2ccccc2C1", "note": "[1G244, reference compound]", "values": [
      {"measurement": "IC50", "setting": "DPP8; GP-AMC 250 µM, 10 nM enzyme, 45 min pre-incubation at 30 °C, read-out: IC50 DPP8", "result": "4.4 ± 1.5", "unit": "nM"},
      {"measurement": "DPP8 activity [%]", "setting": "DPP8; c 1.6 nM", "result": "91.0893% and 98.7118% and 100.309%"},
      {"measurement": "DPP8 activity [%]", "setting": "DPP8; c 3.1 nM", "result": "71.9188% and 85.2033% and 73.5988%"},
      {"measurement": "DPP8 activity [%]", "setting": "DPP8; c 6.3 nM", "result": "45.4307% and 54.9695% and 54.3535%"},
      {"measurement": "DPP8 activity [%]", "setting": "DPP8; c 25 nM", "result": "12.8362% and 14.9584% and 14.076%"},
      {"measurement": "DPP8 activity [%]", "setting": "DPP8; c 50 nM", "result": "6.548% and 6.987% and 5.844%"},
      {"measurement": "DPP8 activity [%]", "setting": "DPP8; c 100 nM", "result": "2.369% and 3.267% and 3.933%"},
      {"measurement": "95% confidence interval of difference", "setting": "[1]; Figure 5c", "result": "-77,49 to -58,50"},
      {"measurement": "95% confidence interval of difference", "setting": "[1]; Figure S10a replicate 1", "result": "-64,34 to -33,22"},
      {"measurement": "95% confidence interval of difference", "setting": "[1]; Figure S10a replicate 2", "result": "-102,2 to -69,11"},
      {"measurement": "95% confidence interval of difference", "setting": "[1]; Figure S10a replicate 3", "result": "-86,10 to -55,17"},
      {"measurement": "effect on MMC-induced DPP9-BRCA2 PLA events", "setting": "[1]; HeLa wild-type, 300 nM MMC 24 h, 10 µM inhibitor", "result": "fewer MMC-induced PLA events"},
      {"measurement": "Cell viability normalized to mock treated cells + 0 µM MMC", "setting": "HeLa wild-type cells [2]", "result": "47.738% and 64.0147% and 69.6676% and 64.7998% and 59.8364% and 62.7117% and 63.5049% and 78.6659% and 67.3863%"},
      {"measurement": "95% confidence interval of difference", "setting": "HeLa wild-type cells [2]", "result": "26,96 to 48,16"},
      {"measurement": "effect on cell viability without MMC", "setting": "HeLa wild-type cells [2]; HeLa wild-type, 10 µM, 72 h", "result": "reduced cell viability"},
      {"measurement": "cell viability normalized for each condition seperately to corresponsing [-MMC +inhibitor] control", "setting": "HeLa wild-type cells [3]", "result": "65.3963% and 56.5004% and 50.0376% and 54.1195% and 51.2842% and 44.9012% and 47.541% and 41.8131% and 48.7041%"},
      {"measurement": "95% confidence interval of difference", "setting": "HeLa wild-type cells [3]; [4]", "result": "21,97 to 43,17"},
      {"measurement": "95% confidence interval of difference", "setting": "HeLa wild-type cells [3]; [5]", "result": "6,539 to 20,16"},
      {"measurement": "effect on cell viability / sensitivity to MMC", "setting": "HeLa wild-type cells [3]", "result": "increases the sensitivity of; also recorded: significantly reduced cell viability"},
      {"measurement": "IC50", "setting": "DPP9; GP-AMC 250 µM, 10 nM enzyme, 45 min pre-incubation at 30 °C, read-out: IC50 DPP9", "result": "14 ± 2", "unit": "nM"},
      {"measurement": "DPP9 activity [%]", "setting": "DPP9; c 1.6 nM", "result": "98.3651% and 97.0319% and 99.1099%"},
      {"measurement": "DPP9 activity [%]", "setting": "DPP9; c 3.1 nM", "result": "86.8432% and 92.2931% and 89.5294%"},
      {"measurement": "DPP9 activity [%]", "setting": "DPP9; c 6.3 nM", "result": "74.2081% and 76.5022% and 75.3461%"},
      {"measurement": "DPP9 activity [%]", "setting": "DPP9; c 25 nM", "result": "35.0531% and 41.6358% and 39.7574%"},
      {"measurement": "DPP9 activity [%]", "setting": "DPP9; c 50 nM", "result": "22.1104% and 25.58% and 23.0144%"},
      {"measurement": "DPP9 activity [%]", "setting": "DPP9; c 100 nM", "result": "13.084% and 15.2109% and 15.2279%"}
    ]},
    {"smiles": "N[C@@H](CC(=O)N1CCn2c(nnc2C(F)(F)F)C1)Cc1cc(F)c(F)cc1F", "note": "[Sitagliptin]", "values": [
      {"measurement": "Cell viability normalized to mock treated cells + 0 µM MMC", "setting": "HeLa wild-type cells [2]", "result": "87.835% (2×) and 113.478% (2×) and 105.575% (2×) and 118.346% (2×) and 103.264% (2×) and 91.1179% (2×) and 93.7454% (2×) and 87.0346% (2×) and 95.6216% (2×)"},
      {"measurement": "95% confidence interval of difference", "setting": "HeLa wild-type cells [2]", "result": "-8,338 to 12,86"},
      {"measurement": "cell viability normalized for each condition seperately to corresponsing [-MMC +inhibitor] control", "setting": "HeLa wild-type cells [3]", "result": "57.6636% and 68.4041% and 71.5915% and 62.1849% and 65.8665% and 55.7127% and 55.3675% and 52.3411% and 61.9483%"},
      {"measurement": "95% confidence interval of difference", "setting": "HeLa wild-type cells [3]; [4]", "result": "-7,015 to 14,19"},
      {"measurement": "95% confidence interval of difference", "setting": "HeLa wild-type cells [3]; [5]", "result": "-3,548 to 10,07"},
      {"measurement": "effect on cell viability / sensitivity to MMC", "setting": "HeLa wild-type cells [3]", "result": "no additional effect"}
    ]}
  ]
}
